In PubChem BioAssay (NCI):
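Interpolation was linear, between the two tested concentrations surrounding the appropriate level; five concentrations were tested over 48 hours in 96-well plates. Abbreviation: GI50, concentration required for 50% inhibition of growth. Definition used: TGI = concentration required for complete inhibition of growth.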

Assays:
Test in all cases: growth of human tumour cells (NCI), 48 h
[1] = tested on: 786-0 renal
[2] = tested on: A498 renal
[3] = tested on: A549 NSCLC
[4] = tested on: ACHN renal
[5] = tested on: BT-549 breast
[6] = tested on: CAKI-1 renal
[7] = tested on: CCRF-CEM leukemia
[8] = tested on: COLO 205 colon
[9] = tested on: DU-145 prostate
[10] = tested on: EKVX NSCLC
[11] = tested on: HCC-2998 colon
[12] = tested on: HCT-116 colon
[13] = tested on: HCT-15 colon
[14] = tested on: HOP-62 NSCLC
[15] = tested on: HOP-92 NSCLC
[16] = tested on: HS 578T breast
[17] = tested on: HT29 colon
[18] = tested on: IGROV1 ovarian
[19] = tested on: K-562 leukemia
[20] = tested on: KM12 colon
[21] = tested on: LOX IMVI melanoma
[22] = tested on: M14 melanoma
[23] = tested on: MALME-3M melanoma
[24] = tested on: MCF7 breast
[25] = tested on: MDA-MB-231 breast
[26] = tested on: MDA-MB-435
[27] = tested on: MOLT-4 leukemia
[28] = tested on: NCI-H23 lung
[29] = tested on: NCI-H460 lung
[30] = tested on: NCI-H522 lung
[31] = tested on: NCI/ADR-RES ovarian
[32] = tested on: OVCAR-3 ovarian
[33] = tested on: OVCAR-4 ovarian
[34] = tested on: OVCAR-5 ovarian
[35] = tested on: OVCAR-8 ovarian
[36] = tested on: PC-3 prostate
[37] = tested on: RPMI-8226 leukemia
[38] = tested on: RXF 393 renal
[39] = tested on: SF-268 CNS
[40] = tested on: SF-295 CNS
[41] = tested on: SF-539 CNS
[42] = tested on: SK-MEL-2 melanoma
[43] = tested on: SK-MEL-28 melanoma
[44] = tested on: SK-MEL-5 melanoma
[45] = tested on: SK-OV-3 ovarian
[46] = tested on: SN12C renal
[47] = tested on: SNB-19 CNS
[48] = tested on: SR leukemia
[49] = tested on: SW-620 colon
[50] = tested on: T-47D breast
[51] = tested on: TK-10 renal
[52] = tested on: U251 CNS
[53] = tested on: UACC-257 melanoma
[54] = tested on: UACC-62 melanoma
[55] = tested on: UO-31 renal

Compound O=c1oc(-c2ccc(O)c(O)c2)cc2cc(O)cc(O)c12 has a GI50 [1] of 39.6 µM, a TGI [1] greater than 100 µM and a GI50 [2] of 27.3 µM. It also gave a TGI [2] of 56.7 µM, a GI50 [3] of 34.1 µM and a TGI [3] greater than 100 µM. It also gave a GI50 [4] of 45.3 µM, a TGI [4] greater than 100 µM and a GI50 [5] of 26.2 µM. The TGI [5] was 84.8 µM, the GI50 [6] was 33.6 µM and the TGI [6] was greater than 100 µM. The GI50 [7] was 3.39 µM, the TGI [7] was greater than 100 µM and the GI50 [8] was 41.8 µM. The TGI [8] was greater than 100 µM, the GI50 [9] was 32.4 µM and the TGI [9] was greater than 100 µM. The GI50 [10] was 28.4 µM, the TGI [10] was 91.3 µM and the GI50 [11] was 36.6 µM. It also gave a TGI [11] of 57.7 µM, a GI50 [12] of 29.8 µM and a TGI [12] greater than 100 µM. The GI50 [13] was 57.1 µM, the TGI [13] was greater than 100 µM and the GI50 [14] was 33 µM. It also gave a TGI [14] of 90.4 µM, a GI50 [15] of 25.5 µM and a TGI [15] greater than 100 µM. The GI50 [16] was 39.5 µM, the TGI [16] was 94.4 µM and the GI50 [17] was 71.5 µM. It also gave a TGI [17] greater than 100 µM, a GI50 [18] of 2190 nM and a TGI [18] of 43.2 µM. The GI50 [19] was 41.6 µM, the TGI [19] was greater than 100 µM and the GI50 [20] was 28.6 µM. For the same compound, the TGI [20] was greater than 100 µM, the GI50 [21] was 60.8 µM and the TGI [21] was greater than 100 µM. For the same compound, the GI50 [22] was 33.2 µM, the TGI [22] was 93.9 µM and the GI50 [23] was 57.5 µM. The TGI [23] was greater than 100 µM, the GI50 [24] was 42.7 µM and the TGI [24] was greater than 100 µM. It also gave a GI50 [25] of 44.7 µM, a TGI [25] greater than 100 µM and a GI50 [26] of 33 µM. It also gave a TGI [26] greater than 100 µM, a GI50 [27] of 22.4 µM and a TGI [27] greater than 100 µM. The GI50 [28] was 35.2 µM, the TGI [28] was greater than 100 µM and the GI50 [29] was 31 µM. It also gave a TGI [29] greater than 100 µM, a GI50 [30] of 27.3 µM and a TGI [30] greater than 100 µM. It also gave a GI50 [31] of 33.5 µM, a TGI [31] greater than 100 µM and a GI50 [32] of 35.3 µM. It also gave a TGI [32] greater than 100 µM, a GI50 [33] of 76.6 µM and a TGI [33] greater than 100 µM. It also gave a GI50 [34] of 36.7 µM, a TGI [34] greater than 100 µM and a GI50 [35] of 42.1 µM. It also gave a TGI [35] greater than 100 µM, a GI50 [36] of 31.6 µM and a TGI [36] greater than 100 µM. The GI50 [37] was 20.8 µM, the TGI [37] was greater than 100 µM and the GI50 [38] was 35.9 µM. For the same compound, the TGI [38] was greater than 100 µM, the GI50 [39] was 32.4 µM and the TGI [39] was greater than 100 µM. For the same compound, the GI50 [40] was 43.7 µM, the TGI [40] was greater than 100 µM and the GI50 [41] was 26.7 µM. For the same compound, the TGI [41] was 91.5 µM, the GI50 [42] was 74.4 µM and the TGI [42] was greater than 100 µM. For the same compound, the GI50 [43] was 39.5 µM, the TGI [43] was greater than 100 µM and the GI50 [44] was 18 µM. The TGI [44] was 42.2 µM, the GI50 [45] was greater than 100 µM and the TGI [45] was greater than 100 µM. The GI50 [46] was 43 µM, the TGI [46] was greater than 100 µM and the GI50 [47] was 56.3 µM. It also gave a TGI [47] greater than 100 µM, a GI50 [48] of 8.26 µM and a TGI [48] greater than 100 µM. The GI50 [49] was 35.2 µM, the TGI [49] was greater than 100 µM and the GI50 [50] was 54.5 µM. The TGI [50] was greater than 100 µM, the GI50 [51] was 30.5 µM and the TGI [51] was greater than 100 µM. The GI50 [52] was 48.5 µM, the TGI [52] was greater than 100 µM and the GI50 [53] was 38 µM. It also gave a TGI [53] greater than 100 µM, a GI50 [54] of 33.8 µM and a TGI [54] greater than 100 µM. For the same compound, the GI50 [55] was 18.5 µM and the TGI [55] was greater than 100 µM.
